This is an account of results in patent US20240166664A1, “TRIHETEROCYCLIC COMPOUND, PREPARATION METHOD THEREFOR, AND APPLICATION THEREOF” (SHANGHAI APEIRON THERAPEUTICS COMPANY LIMITED, priority 2021, published 2024).

One experiment deals with tumor. The following applies: preclinical experimental data; cited from earlier work.
Another experiment concerns the target T1, PARP7 (Homo sapiens, UniProt Q7Z3E1).
T1 construct: purchased BPS 80527
T1 sequence (Q7Z3E1 1-657): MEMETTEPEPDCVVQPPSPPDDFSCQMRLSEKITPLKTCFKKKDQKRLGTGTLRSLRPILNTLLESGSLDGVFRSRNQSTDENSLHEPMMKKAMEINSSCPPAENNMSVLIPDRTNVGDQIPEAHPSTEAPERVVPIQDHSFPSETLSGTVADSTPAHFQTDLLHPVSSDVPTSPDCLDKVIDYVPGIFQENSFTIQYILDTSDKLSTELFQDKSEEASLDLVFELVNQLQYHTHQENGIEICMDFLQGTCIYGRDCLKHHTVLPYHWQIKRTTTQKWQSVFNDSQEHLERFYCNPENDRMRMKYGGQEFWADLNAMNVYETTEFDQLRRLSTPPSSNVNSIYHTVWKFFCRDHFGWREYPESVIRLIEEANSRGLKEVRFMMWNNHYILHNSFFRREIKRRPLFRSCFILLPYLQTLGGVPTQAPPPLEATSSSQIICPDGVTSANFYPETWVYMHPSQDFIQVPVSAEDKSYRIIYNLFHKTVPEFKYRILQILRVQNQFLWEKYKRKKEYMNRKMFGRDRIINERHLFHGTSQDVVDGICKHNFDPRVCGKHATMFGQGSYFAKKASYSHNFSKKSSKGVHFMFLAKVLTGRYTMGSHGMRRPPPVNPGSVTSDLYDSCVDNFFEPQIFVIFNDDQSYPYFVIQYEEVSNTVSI
The experiment in a line: Test of inhibitory activity against PARP7 enzyme (PARP7 FLAG-tag, Probe A, time-resolved fluorescence). The class given is biochemical. Conditions: PARP7 12 nM, Probe A 2 nM, 1 hr room temperature.

For a further experiment, the system named is NCI-H1373 cells. The experiment in a line: Cell proliferation inhibition assay (CTG method). The class given is cell-based, human. Conditions: Homo sapiens, NCI-H1373, 144 h, NCI-H1373 cells, 6 days incubation, CTG method; read-out: IC50 (nM) for NCI-H1373 cell viability.

By IC50 is commonly meant the concentration at which inhibition is half-maximal.

For `C[C@@H](COCCC(=O)N1CCN(c2ncc(C(F)(F)F)cn2)CC1)Nc1cn[nH]c(=O)c1C(F)(F)F` [RBN-2397], in the experiment on tumor, the anti-tumor growth effect entry is on record as “potent anti-tumor growth effect increasing in a dose-dependent manner” and the “tumor-specific adaptive immune memory” value is “induces tumor-specific adaptive immune memory”.

`C[C@@H](COCCC(=O)N1CCN2c3ncc(C(F)(F)F)cc3OC[C@@H]2C1)Nc1cn[nH]c(=O)c1C(F)(F)F` [Compound 2, 5-(((S)-1-(3-oxo-3-((S)-3-(trifluoromethyl)-6a, 7,9,10-tetrahydropyrazino[1,2-d]pyrido[3,2-b][1,4]oxazin-8(6H)-yl)propoxy)prop-2-yl)amino)-4-(trifluoromethyl)pyridazin-3(2H)-one]: the IC50 is less than 10 nM on PARP7 and less than 100 nM in the experiment with NCI-H1373 cells.

In the case of `C[C@@H](COCCC(=O)N1CCN2c3ncc(C(F)(F)F)cc3C(F)(F)C[C@@H]2C1)Nc1cn[nH]c(=O)c1C(F)(F)F` (single isomer, unassigned) [Compound 64], the IC50 was less than 10 nM on PARP7 and 500 to 5000 nM in the experiment on NCI-H1373 cells.

Consider `C[C@@H](COCCC(=O)N1CCN2c3ncc(F)cc3COC[C@H]2C1)Nc1cn[nH]c(=O)c1C(F)(F)F` [Compound 20, (R)-9-(3-((S)-2-((6-oxo-5-(trifluoromethyl)-1,6-dihydropyridazin-4-yl)amino)propoxy)propionyl)-3-fluoro-7,7a, 8,9,10,11-hexahydro-5H-pyrazino[2,1-c]pyrido[2,3-e][1,4]oxazin-5-one], for which the IC50 was greater than 500 nM on PARP7 and greater than 5000 nM in the experiment on NCI-H1373 cells.

`C[C@@H](COC[C@H](F)C(=O)N1CCN2c3ncc(C(F)(F)F)cc3C=C[C@@H]2C1)Nc1cn[nH]c(=O)c1C(F)(F)F` [Compound 74]: the IC50 against PARP7 was less than 10 nM; in the experiment with NCI-H1373 cells, less than 100 nM.

As to `C[C@@H](COCCC(=O)N1CCN2c3ncc(C(F)(F)F)cc3CN(C)C[C@H]2C1)Nc1cn[nH]c(=O)c1C(F)(F)F` [Compound 23, 5-(((S)-1-(3-((S)-6-methyl-3-(trifluoromethyl)-6,7,7a, 8,10,11-octahydropyrazino[1,2-a]pyrido[3,2-f][1,4]Diazepin-9(5H)-yl)-3-propoxy)prop-2-yl)amino)-4-(trifluoromethyl) pyridazin-3(2H)-one], the figures for the IC50 on PARP7 and in the experiment on NCI-H1373 cells were less than 10 nM and 100 to 500 nM, respectively.
